The source made the active and inactive calls. The calls are words filed in the database; no cut-off is given here.
Tests used:
[1] = tested on: PBMC; assay: Immunomodulatory activity in PMA/ionomycin-induced human PBMC assessed as reduction in frequency of IL-2 expressing CD3+ T cells at 1 to 20 uM incubated for 4 hrs by flow cytometry; assay type: functional, cell-based; details: dose 1-20 µM
[2] = tested on: PBMC; assay: Cytotoxicity against human PBMC assessed as early apoptotic cells at 1 to 20 uM incubated for 4 hrs by Annexin V-FITC/7-AAD staining based flow cytometric analysis; assay type: toxicity, cell-based; details: dose 1-20 µM
[3] = tested on: PBMC; assay: Cytotoxicity against human PBMC assessed as late apoptotic cells at 1 to 20 uM incubated for 4 hrs by Annexin V-FITC/7-AAD staining based flow cytometric analysis; assay type: toxicity, cell-based; details: dose 1-20 µM
[4] = tested on: PBMC; assay: Immunomodulatory activity in human PBMC derived from multiple sclerosis patient assessed as reduction in IL-2 expressing CD3+ T cells at 10 uM incubated for 4 hrs by flow cytometry; assay type: functional, cell-based
[5] = tested on: PBMC; assay: Immunomodulatory activity in human PBMC derived from multiple sclerosis patient assessed as reduction in TNF-alpha expressing CD3+ T cells at 10 uM incubated for 4 hrs by flow cytometry; assay type: functional, cell-based
[6] = tested on: PBMC; assay: Immunomodulatory activity in human PBMC derived from multiple sclerosis patient assessed as reduction in IFN-gamma expressing CD3+ T cells at 10 uM incubated for 4 hrs by flow cytometry; assay type: functional, cell-based
[7] = tested on: PBMC; assay: Inhibition of Ca2+ influx in human PBMC derived from multiple sclerosis patient assessed as reduction in Ca2+ influx rate in CD8+ T cells at 10 uM incubated for 4 hrs by Fluo-4 AM staining based flow cytometry method; assay type: functional, cell-based
[8] = tested on: PBMC; assay: Inhibition of Ca2+ influx in human PBMC derived from multiple sclerosis patient assessed as reduction in Ca2+ influx rate in CD4+ T cells at 10 uM incubated for 4 hrs by Fluo-4 AM staining based flow cytometry method; assay type: functional, cell-based
[9] = tested on: PBMC; assay: Immunomodulatory activity in multiple sclerosis patient derived PBMC derived from multiple sclerosis patient assessed as increase in frequency of CTLA4+CRTH2+ CD8+ T cells by CyTOF assay; assay type: functional, cell-based; details: Homo sapiens
[10] = tested on: PBMC; assay: Immunomodulatory activity in PMA/ionomycin-induced human PBMC derived from multiple sclerosis patient assessed as increase in frequency of CTLA4+CRTH2+ CD8+ T cells by CyTOF assay; assay type: functional, cell-based
[11] = tested on: PBMC; assay: Immunomodulatory activity in multiple sclerosis patient derived PBMC derived from multiple sclerosis patient assessed as reduction in frequency of reactive ICOS+ CD4+ T cells by CyTOF assay; assay type: functional, cell-based; details: Homo sapiens
[12] = tested on: PBMC; assay: Immunomodulatory activity in PMA/ionomycin-induced human PBMC assessed as reduction in frequency of TNF-alpha expressing CD14+ inflammatory monocytes at 1 to 20 uM incubated for 4 hrs by flow cytomtery; assay type: functional, cell-based; details: dose 1-20 µM
[13] = tested on: PBMC; assay: Immunomodulatory activity in PMA/ionomycin-induced human PBMC derived from multiple sclerosis patient assessed as reduction in frequency of reactive ICOS+ CD4+ T cells by CyTOF assay; assay type: functional, cell-based
[14] = tested on: PBMC; assay: Immunomodulatory activity in PMA/ionomycin-induced human PBMC derived from multiple sclerosis patient assessed as decrease in frequency of CD161+ CD3+T-bet+CD4-CD8-CD14- double negative T cells by CyTOF assay; assay type: functional, cell-based
[15] = tested on: PBMC; assay: Immunomodulatory activity in PMA/ionomycin-induced human PBMC assessed as reduction in frequency of IFN-gamma expressing CD3+ activated T cells at 1 to 20 uM incubated for 4 hrs by flow cytometry; assay type: functional, cell-based; details: dose 1-20 µM
[16] = tested on: PBMC; assay: Inhibition of Ca2+ influx in human PBMC derived from multiple sclerosis patient assessed as decrease in Ca2+ influx rate in CD8+ T cells at 1 uM incubated for 4 hrs by Fluo-4 AM staining based flow cytometry method; assay type: functional, cell-based
[17] = tested on: PBMC; assay: Inhibition of Ca2+ influx in human PBMC derived from multiple sclerosis patient assessed as decrease in Ca2+ influx rate in CD4+ T cells at 1 uM incubated for 4 hrs by Fluo-4 AM staining based flow cytometry method; assay type: functional, cell-based

Structure (SMILES)	Activity [1]	Activity [2]	Activity [3]	Activity [4]	Activity [5]	Activity [6]	inhibition [7]	inhibition [8]	also measured
COc1cc2ccc3c(OC)c(O)ccc3c2c(OC)c1O	Active								
COc1cc2c(c(OC)c1O)-c1ccc(O)c(O)c1CC2	Active	Non-Toxic	Non-Toxic	Active	Active	Active	inactive	inactive	
COC1=CC(=O)c2c(ccc3c(OC)c(O)ccc23)[C@@]12Oc1cc(OC)cc3ccc4c(c13)C2=CC(=O)C4=O	Active	Non-Toxic	Non-Toxic	Active	Active	Active	inactive	inactive	Activity [9]: Active; Activity [10]: Active; Activity [11]: Active; Activity [12]: Active; Activity [13]: Active; Activity [14]: Active; Activity [15]: Active
Cc1cccc(F)c1C(=O)Nc1cnc(-c2cc3c(cc2Cl)OC(F)(F)O3)cn1									inhibition [16]: Active; inhibition [17]: Active
COC1=CC(=O)c2c(ccc3c(OC)c(O)ccc23)C1=O	Active								
